From US7045528B2, “Benzofused heterozryl amide derivatives of thienopyridines useful as therapeutic agents, pharmaceutical compositions including the same, and methods for their use” (Agouron Pharmaceuticals, Inc., priority 2002, dated 2006)

Key:
[1] = target: T1, PDGFRβ (Homo sapiens, UniProt P09619); assay: PAE-PDGFRβ phosphorylation in PAE-PDGFRB cells assay; assay type: cell-based; conditions: PAE cells overexpressing human PDGFRβ, PDGF-BB stimulated; read-out: PAE PDGFR autophos IC50 (nM) AVG
T1 construct: expressed in transfected cells; host or cells: porcine aorta endothelial (PAE)-PDGFRβ cells
T1 sequence (P09619 33-1106): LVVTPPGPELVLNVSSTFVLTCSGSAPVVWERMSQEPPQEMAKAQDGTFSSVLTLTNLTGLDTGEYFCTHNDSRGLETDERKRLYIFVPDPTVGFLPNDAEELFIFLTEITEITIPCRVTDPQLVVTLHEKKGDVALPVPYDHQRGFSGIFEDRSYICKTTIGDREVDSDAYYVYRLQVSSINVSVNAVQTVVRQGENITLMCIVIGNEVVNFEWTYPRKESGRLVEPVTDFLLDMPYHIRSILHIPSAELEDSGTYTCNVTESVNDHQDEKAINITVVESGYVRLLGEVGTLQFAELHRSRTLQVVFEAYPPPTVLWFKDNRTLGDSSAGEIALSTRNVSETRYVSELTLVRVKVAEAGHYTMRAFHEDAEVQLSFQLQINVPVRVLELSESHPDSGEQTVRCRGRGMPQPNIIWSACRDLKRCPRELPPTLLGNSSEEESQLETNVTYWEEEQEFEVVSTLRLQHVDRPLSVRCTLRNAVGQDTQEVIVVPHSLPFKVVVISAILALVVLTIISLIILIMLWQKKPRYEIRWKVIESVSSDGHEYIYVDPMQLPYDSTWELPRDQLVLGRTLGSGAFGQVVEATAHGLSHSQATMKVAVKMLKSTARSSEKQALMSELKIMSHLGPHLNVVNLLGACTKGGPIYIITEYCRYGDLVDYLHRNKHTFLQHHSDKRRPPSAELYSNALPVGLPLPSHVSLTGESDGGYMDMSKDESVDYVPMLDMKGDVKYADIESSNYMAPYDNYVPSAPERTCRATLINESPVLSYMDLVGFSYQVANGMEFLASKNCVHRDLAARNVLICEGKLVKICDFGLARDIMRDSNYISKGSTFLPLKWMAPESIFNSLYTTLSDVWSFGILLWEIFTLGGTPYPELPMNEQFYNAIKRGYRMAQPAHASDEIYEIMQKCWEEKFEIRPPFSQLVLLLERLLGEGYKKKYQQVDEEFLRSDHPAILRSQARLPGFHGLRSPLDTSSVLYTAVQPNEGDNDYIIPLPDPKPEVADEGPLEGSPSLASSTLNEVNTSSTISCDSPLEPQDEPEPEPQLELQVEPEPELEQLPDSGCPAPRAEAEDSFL
In short: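 Inhibition of PDGF-BB-induced (1 μg/mL, 8 min, with 2 mM vanadate) PDGFRβ autophosphorylation in porcine aortic endothelial cells expressing the human receptor. Cells were starved 16 h and pretreated with compound 1 h at 37 °C. Lysates were captured with anti-PDGFRβ and probed with HRP-PY20 at 450 nm; four-parameter IC50.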

[2] = tested on: Huvec; assay: bFGF Huvec proliferation; assay type: cell-based, human; conditions: Homo sapiens, HUVEC
[3] = target: T2, unphosphorylated VEGF-R2Δ50 (FLVK) (Homo sapiens, UniProt P35968, DEL940-989/E990V); assay: VEGF-R2 coupled spectrophotometric assay, unphosphorylated VEGF-R2Δ50 (FLVK); assay type: biochemical; conditions: unphosphorylated VEGF-R2Δ50; for inhibition at 0.05 µM: 50 nM compound, read-out: FLVK (% inh @ 50 nM)
T2 construct: VEGF-R2Δ50 contains residues 806–939 and 990–1171; made in house; host or cells: baculovirus/insect cell system
T2 sequence (P35968 with tags, fused parts or gaps DEL940-989/E990V limits assumed): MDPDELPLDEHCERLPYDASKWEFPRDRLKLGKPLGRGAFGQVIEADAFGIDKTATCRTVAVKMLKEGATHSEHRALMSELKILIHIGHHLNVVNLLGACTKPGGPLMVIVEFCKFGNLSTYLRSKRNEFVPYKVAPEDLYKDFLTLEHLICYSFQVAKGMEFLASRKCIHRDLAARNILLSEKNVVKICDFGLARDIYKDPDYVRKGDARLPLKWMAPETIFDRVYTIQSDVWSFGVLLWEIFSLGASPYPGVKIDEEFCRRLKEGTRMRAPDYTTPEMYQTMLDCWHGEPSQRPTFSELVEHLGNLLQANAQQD
In short: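 Ki obtained by Morrison-equation fitting of activity at varied compound levels; reaction started with 5–40 nM enzyme. Non-autophosphorylated kinase construct (insect cell-expressed) with 3 mM ATP, 20 mM poly(E4Y1), 60 mM MgCl2 plus 2 mM MnCl2, pH 7.5 HEPES; NADH loss at 340 nm via PK/LDH coupling.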

[4] = tested on: human umbilical vein endothelial cells (HUVEC); assay: HUVEC+VEGF proliferation assay; assay type: cell-based; conditions: Homo sapiens, HUVEC; VEGF 6 ng/mL, 72 h, MTT
In short: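 Exponentially growing passage 3–4 HUVEC were starved 24 h in F12K + 1% FBS, given compound (0.1% final DMSO) 1 h before 6 ng/mL final VEGF, then cultured 72 h. Proliferation was read as MTT dye reduction (4 h exposure), absorbance at 595 nm.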

| IC50 [1] [nM] | inhibition at 0.05 µM [3] [%] | Ki [3] [nM] | SMILES | IC50 [2] [nM] | IC50 [4] [nM] |
| --- | --- | --- | --- | --- | --- |
| 376 | 82 | 2.19 | CO[C@@H]1CCN(C(=O)c2cc3nccc(Oc4ccc5c(C(=O)NCCCO)c(C)sc5c4)c3s2)C1 [Example 124, 6-[(2-{[(3R)-3-Methoxypyrrolidin-1-yl]carbonyl}thieno[3,2-b]pyridin-7-yl)oxy]-2-methylbenzo[b]thiophene-3-carboxylic acid 3-hydroxypropylamide] | 8240 | 1.6 |
| 7 | 100 | 0.2 | CNC(=O)c1c(C)oc2cc(Oc3ccnc4cc(-c5nc(CO)cs5)sc34)ccc12 [Example 81, 6-[2-(4-Hydroxymethyl-thiazol-2-yl)-thieno[3,2-b]pyridin-7-yloxy]-2-methyl-benzofuran-3-carboxylic acid methylamide] | 26 | 0.09 |
| 63 | 61 | 11.5 | CNC(=O)c1c(C)n(C)c2cc(Oc3ccnc4cc(C(=O)N(C)C)sc34)ccc12 [Example 33, 7-({1,2-Dimethyl-3-[(methylamino)carbonyl]-1H-indol-6-yl}oxy)-N,N-dimethylthieno[3,2-b]pyridine-2-carboxamide] | 10000 | 10 |
| 90.6 | 95 | 0.375 | Cc1sc2cc(Oc3ccnc4cc(-c5nccn5C)sc34)ccc2c1C(=O)NCC1CC1 [Example 119, 2-Methyl-6-{[2-(1-methyl-1-imidazol-2-yl)thieno[3,2-b]pyridin-7-yl]oxy}benzo[b]thiophene-3-carboxylic acid (cyclopropylmethyl)amide] | 1830 | 1.46 |
| 115 | 81 | 1.38 | CCCNC(=O)c1c(C)n(C)c2cc(Oc3ccnc4cc(C(=O)N5CC[C@@H](O)C5)sc34)ccc12 [Example 59, 6-[2-(3-Hydroxy-pyrrolidine-1-carbonyl)-thieno[3,2-b]pyridin-7-yloxy]-1,2-dimethyl-3H-indole-3-carboxylic acid propylamide] | 1160 | 0.045 |
| 74 | 63 | 6 | CNC(=O)c1c(C)n(C)c2cc(Oc3ccnc4cc(C(=O)N5CC(O)C5)sc34)ccc12 [Example 30, 6-[2-(3-Hydroxy-azetidine-1-carbonyl)-thieno[3,2-b]pyridin-7-yloxy]-1,2-dimethyl-1H-indole-3-carboxylic acid methylamide] | 10000 | 33.6 |
| 6.52 | 95 | 0.3 | Cc1c(C(=O)Nc2ccccn2)c2ccc(Oc3ccnc4cc(-c5nccn5C)sc34)cc2n1C [Example 69, 1,2-Dimethyl-6-[2-(1-methyl-1H-imidazol-2-yl)-thieno[3,2-b]pyridin-7-yloxy]-1H-indole-3-carboxylic acid pyridin-2-ylamide] | 4310 | 0.57 |
| 133 | 89 | 1.71 | Cc1c(C(=O)NC2CC2)c2ccc(Oc3ccnc4cc(C(=O)N5CCC[C@H]5CO)sc34)cc2n1C [Example 54, N-Cyclopropyl-6-[(2-{[(2S)-2-(hydroxymethyl)pyrrolidin-1-yl]carbonyl}thieno[3,2-b]pyridin-7-yl)oxy]-1,2-dimethyl-1H-indole-3-carboxamide] | 10000 | 1.8 |
| 31 | 95 | 0.438 | CNC(=O)c1c(C)oc2cc(Oc3ccnc4cc(C(=O)N5CCC[C@H]5CO)sc34)ccc12 [Example 80, 6-(2-[(S)-2-(hydroxymethyl)pyrrolidine-1-carbonyl]thieno[3,2-b]pyridin-7-yloxy)-2-methyl-benzofuran-3-carboxylic acid methylamide] | 60 | 0.239 |
| 405 | 93 | 0.6 | COC[C@@H]1CCCN1C(=O)c1cc2nccc(Oc3ccc4c(C(=O)NC5CC5)c(C)sc4c3)c2s1 [Example 120, 6-[(2-{[(2S)-2-(Methoxymethyl)pyrrolidin-1-yl]carbonyl}thieno[3,2-b]pyridin-7-yl)oxy]-2-methylbenzo[b]thiophene-3-carboxylic acid cyclopropylamide] | 489 | 0.491 |
| 12.4 | 94 | 0.58 | Cc1oc2cc(Oc3ccnc4cc(-c5nccn5C)sc34)ccc2c1C(=O)NCC(C)C [Example 84, 2-Methyl-6-[2-(1-methyl-1H-imidazol-2-yl)-thieno[3,2-b]pyridin-7-yloxy]-benzofuran-3-carboxylic acid isobutyl amide] | 429 | 0.322 |
| 33 | 93 | 0.739 | CO[C@@H]1CCN(C(=O)c2cc3nccc(Oc4ccc5c(C(=O)NCCN6CCOCC6)c(C)oc5c4)c3s2)C1 [Example 90, 6-[2-(3-Methoxy-pyrrolidine-1-carbonyl)-thieno[3,2-b]pyridin-7-yloxy]-2-methyl-benzofuran-3-carboxylic acid (2-morpholin-4-yl-ethyl)-amide] | 745 | 2.14 |
| 97 | 96 | 0.2 | Cc1sc2cc(Oc3ccnc4cc(C(=O)N5CCC5)sc34)ccc2c1C(=O)NCC1CC1 [Example 131, 6-{[2-(Azetidin-1-ylcarbonyl)thieno[3,2-b]pyridin-7-yl]oxy}-2-methylbenzo[b]thiophene-3-carboxylic acid (cyclopropylmethyl)amide] | 260 | 1.89 |
| 12.3 | 60 | 6.12 | CNC(=O)c1c(C)n(C)c2cc(Oc3ccnc4cc(-c5ccncc5)sc34)ccc12 [Example 38, 1,2-Dimethyl-6-(2-pyridin-4-yl-thieno[3,2-b]pyridin-7-yloxy)-1H-indole-3-carboxylic acid methylamide] | 10000 | 27 |
| 102 | 100 | 0.2 | Cc1sc2cc(Oc3ccnc4cc(C(=O)N5CCC5)sc34)ccc2c1C(=O)NC1CC1 [Example 127, 6-{[2-(Azetidin-1-ylcarbonyl)thieno[3,2-b]pyridin-7-yl]oxy}2-methylbenzo[b]thiophene-3-carboxylic acid cyclopropylamide] | 41 | 1 |
| 13 | 83 | 3.66 | CNC(=O)c1c(C)n(C)c2cc(Oc3ccnc4cc(-c5nc(CO)cs5)sc34)ccc12 [Example 26, 1,2-Dimethyl-6-(2-[4-(hydroxymethyl)thiazol-2-yl]thieno[3,2-b]pyridin-7-yloxy)-1H-indole-3-carboxylic acid methylamide] | 2230 | 0.74 |
| 38.3 | 81 | 2.17 | CCCNC(=O)c1c(C)n(C)c2cc(Oc3ccnc4cc(-c5nccs5)sc34)ccc12 [Example 60, 1,2-Dimethyl-6-(2-thiazol-2-yl-thieno[3,2-b]pyridin-7-yloxy)1H-indole-3-carboxylic acid propylamide] | 1700 | 1.34 |
| 21.3 | 87 | 1.2 | CNC(=O)c1c(C)n(C)c2cc(Oc3ccnc4cc(C(=O)N5CCC(CNC(=O)OC(C)(C)C)C5)sc34)ccc12 (stereo not drawn) [Example 44, tert-Butyl (1-{[7-({1,2-dimethyl-3-[(methylamino)carbonyl]-1H-indol-6-yl}oxy)thieno[3,2-b]pyridin-2-yl]carbonyl}pyrrolidin-3-yl)methylcarbamate] | 6040 | 1.78 |
| 335 | 95 | 0.39 | Cc1sc2cc(Oc3ccnc4cc(-c5nc(CO)cs5)sc34)ccc2c1C(=O)NCC1CC1 [Example 130] | 100 | 0.49 |
| 220 | 94 | 0.2 | Cc1sc2cc(Oc3ccnc4cc(C(=O)N5CC[C@@H](O)C5)sc34)ccc2c1C(=O)NC1CC1 [Example 121, 6[(2-{[(3R)-3-Hydroxypyrrolidin-1-yl]carbonyl}thieno[3,2-b]pyridin-7-yl)oxy]-2-methylbenzo[b]thiophene-3-carboxylic acid cyclopropylamide] | 100 | 0.24 |
| 15 | 78 | 2.8 | CNC(=O)c1c(C)n(C)c2cc(Oc3ccnc4cc(C(=O)N5CCCC5)sc34)ccc12 [Example 28, 1,2-Dimethyl-6-[2-(pyrrolidine-1-carbonyl)-thieno[3,2-b]pyridin-7-yloxy]-1H-indole-3-carboxylic acid methylamide] | 462 | 0.272 |
